# Data from PMC6627374, “Effects of the Pentapeptide P33 on Memory and Synaptic Plasticity in APP/PS1 Transgenic Mice: A Novel Mechanism Presenting the Protein Fe65 as a Target” (International Journal of Molecular Sciences, 2019).
# Where “and” joins values, the source holds several entries; their conditions need not be identical. Equal entries are not always repeated. Entries after “also recorded” stand apart in the source; their conditions may differ. Where a SMILES comes first, the peptide text is derived from it.
# Key:
# [1] = target: T1, Fe65-WW domain (WW domain of Fe65) (Homo sapiens, UniProt O00213); assay: ITC binding to Fe65-WW; parameters: species or system human and mouse (WW domain identical); settings: 310 K
# T1 construct: made in house; host or cells: chemical solid-phase peptide synthesis (Fmoc, Rink Amide AM resin); no expression host
# T1 sequence (O00213 253-285 limits assumed): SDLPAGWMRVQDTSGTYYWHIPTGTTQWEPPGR
# Protocol: (§1) Synthesis of acetyl-Fe65-WW, acetyl-Pin1-WW, and the control PPPPP (structures involved in Figure 2) was carried out on a Rink Amide AM (0.3 mmol∙g^−1) resin using Fmoc chemistry and activation with HATU in the presence of DIPEA. Cleavage was achieved by a treatment with TFA/H2O/triisopropylsilane/1,4-dithio-DL-threitol/phenol (90:5:3:1:1) at room temperature (RT). TFA was removed in vacuo, the peptides were then precipitated using cold, dry diethyl-ether, dissolved in ACN/H2O and lyophilized.
# (§2) Isothermal titrations were performed using a Microcal VP-ITC (Malvern Instruments, Malvern, UK) microcalorimeter. Binding experiments were carried out in degassed phosphate-buffered saline (PBS) at pH 7.4. The concentrations of Fe65-WW and Pin1-WW were normalized for the peptide contents. In one titration experiment, 10-μL portions of the ligand-containing solution (P33 or PPPPP) were injected from a computer-controlled 300-μL microsyringe at intervals of 300 s into the solution of the WW domain (Fe65-WW or Pin1-WW), dissolved in the same buffer as for the ligand. The rev of the microsyringe was set to 307 rpm. Measurements were repeated twice at 310 K. The starting concentrations of Fe65-WW and Pin1-WW in the cell were 83.5 and 81.4 μM, respectively, and the concentrations of the stock solutions containing P33 or PPPPP in the syringe were 1.006 and 1.056 mM, respectively. Control experiments were performed by injecting P33 or PPPPP into the cell containing plain buffer without the WW domain, with results achieved via subtracting the dilution heats from those measured in the presence of the WW domain.
# [2] = tested on: Pin1-WW domain (WW domain of Pin1); assay: ITC binding to Pin1-WW; settings: 310 K, PBS pH 7.4, Pin1-WW 81.4 μM in cell, P33 in syringe
# Protocol: as §1
# as §2, with “Measurements were repeated twice at 310 K. The starting concentrations of Fe65-WW and Pin1-WW in the cell were 83.5 and 81.4 μM, respectively, and the concentrations of the stock solutions containing P33 or PPPPP in the syringe were 1.006 and 1.056 mM, respectively.” left out
# human APP = assay: Western blot, APP level in brain (6E10); assay type: in vivo, human APP in APP/PS1 transgenic mice; settings: APP/PS1 mice; 5 mg∙kg^−1 i.p., five days per week, six months; HC and CTX
# Protocol: For this study, three-month-old male and female WT and APP/PS1 mice (n = 37) were used. Four groups were defined: WT-vehicle (physiological saline) (male n = 4; female n = 6), WT-P33 (male n = 6; female n = 5), APP/PS1-vehicle (male n = 3; female n = 5), and APP/PS1-P33 (male n = 6; female n = 2). Animals were subjected to intraperitoneal (i.p.) injections of P33 (5 mg∙kg^−1) for five days per week, over a course of six months. The mice were kept in groups under constant temperature (23 ± 0.5 °C), lighting (12-h/12-h light/dark cycle, lights on at 7:00 a.m.), and humidity (~50%). Standard mouse chow and tap water were supplied ad libitum. All behavioral experiments were performed in the light period. Handling was done daily at the same time.
# Nine-month-old mice (three animals per group) were euthanized via cervical dislocation. […] To quantify the level of Aβ in the mice, we used a sandwich ELISA Kit (Innotest Amyloid-[…]) from Innogenetics (Gent, Belgium), following the instructions of the manufacturer. The absorbance values were measured at 450 nm on a 96-well plate reader (NOVOstar OPTIMA, BMG Labtech, Offenburg, Germany). […]
# The results of spine density and immunohistochemistry experiments were calculated with one-way ANOVA followed by Fisher’s LSD post hoc tests. […] Data were analyzed with SPSS (IBM SPSS Statistics 24), and were expressed as the mean ± standard error of the mean (SEM). […]
compound,measurement,setting,value
C[C@@H](N)C(=O)N1CCC[C@@H]1C(=O)N[C@H](C)C(=O)N1CCC[C@@H]1C(=O)N[C@H](CCC(=O)O)C(N)=O [P33] (HELM PEPTIDE1{[dA].[dP].[dA].[dP].[dE].[am]}$$$$V2.0),"selectivity of binding, Fe65-WW over Pin1-WW (in words)",[1]; PBS pH 7.4,can bind selectively to the Fe65-WW domain
same,ΔH,[1]; PBS pH 7.4,0.082 ± 0.001 kcal/mol
same,stoichiometric factor N,"[1]; PBS pH 7.4, 1:1 [P33]/[Fe65-WW] complex",1.14 and 1.14 ± 0.01
same,Kd,"[1]; PBS pH 7.4, Fe65-WW 83.5 μM in cell, P33 1.006 mM in syringe, measurements repeated twice, read-out: dissociation constant Kd",4.68 ± 0.04 µM
same,binding to Pin1-WW (in words),[2],no considerable binding; also recorded: no detectable binding to the Pin1-WW could be observed
same,"APP level, effect of P33 (in words)",human APP,did not change with the P33-treatment
